Laboratory results: patent publication US4657898A, “N^6 -substituted adenosines and method of use” (Warner-Lambert Company, priority 1985, dated 1987)

Assay: Mouse Activity and Screen Test Procedure (MAST): screen test failure (ST)
Settings: for MAST ST LAD: lowest dose at which an A rating is achieved, screen test, i.p., mouse; for Inhibition of screen test failure: percent of mice falling off the screen
Experimental: Nine unfasted Swiss-Webster male mice weighing 20-30 g are equally divided into three groups for each drug dose to be tested. That is, data for each dose level was generated by three separate groups of three mice each.
A minimum of three dose levels (10, 30, and 100 mg/kg) are tested for each drug. Treatments are administered intraperitoneally one hour prior to testing. All dosages are calculated as parent compound and given in volumes of 10 ml/kg. Compounds are dissolved or suspended in 0.2% Methocel. Control animals are injected with Methocel.
Testing: A two part testing procedure is started one hour postinjection. First, the screen test (ST) is performed (see Pharmac. Biochem. Behav. 6, 351-353, 1977). Briefly this test consists of placing mice on individual wire screens which are then rotated 180 degrees at the start of a 60 second observation period. The number of mice falling off the inverted screen is recorded.
Data: The data obtained from the screen test are expressed as percent of mice falling off the screen. Data derived from locomotor activity of drug treated mice are compared to the activity of vehicle treated animals and are expressed as percent inhibition of spontaneous locomotion. All percentages reported for inhibition of locomotion (LI) are based upon data accumulated for one hour. Both phases of testing are graded: A=60-100%; C=31-59%; and N=0-30%. An overall dose rating is obtained by the following criteria:
LAD refers to the lowest dose at which an A rating is achieved. […] The compounds are identified in the Examples.

Nc1nc(NCC(c2ccc(Cl)cc2)c2ccc(Cl)cc2)c2ncn([C@@H]3O[C@H](CO)[C@@H](O)[C@H]3O)c2n1 [Example 18]
MAST ST LAD: > 30 mg/kg

OC[C@H]1O[C@@H](n2cnc3c(NCCCC(c4ccccc4)c4ccccc4)ncnc32)[C@H](O)[C@@H]1O [Example 6, N^6-(4,4-Diphenylbutyl)adenosine]
MAST ST LAD: > 100 mg/kg

O=P(O)(O)OC[C@H]1O[C@@H](n2cnc3c(NCC(c4ccccc4)c4ccccc4)ncnc32)[C@H](O)[C@@H]1O [Example 28, N^6-(2,2-Diphenylethyl)adenosine-5'-phosphate]
MAST ST LAD: > 30 mg/kg

Nc1nc(NCC(c2ccccc2)c2ccccc2)c2ncn([C@@H]3O[C@H](CO)[C@@H](O)[C@H]3O)c2n1 [Example 4, N^6-(2,2-Diphenylethyl)-2-aminoadenosine]
Inhibition of screen test failure (10 mg/kg i.p.): 0% | Inhibition of screen test failure (30 mg/kg i.p.): 11% | Inhibition of screen test failure (100 mg/kg i.p.): 22% | MAST ST LAD: > 100 mg/kg

CC(=O)OC[C@H]1O[C@@H](n2cnc3c(NCC(c4ccccc4)c4ccccc4)ncnc32)[C@H](OC(C)=O)[C@@H]1OC(C)=O [Example 25, 2',3',5'-Tri-O-acetyl-N^6-(2,2-diphenylethyl)adenosine]
MAST ST LAD: > 100 mg/kg

OC[C@H]1O[C@@H](n2cnc3c(NCCC(c4ccccc4)c4ccccc4)ncnc32)[C@H](O)[C@@H]1O [Example 2, N^6-(3,3-Diphenylpropyl)adenosine]
Inhibition of screen test failure (10 mg/kg i.p.): 0% | Inhibition of screen test failure (30 mg/kg i.p.): 0% | Inhibition of screen test failure (100 mg/kg i.p.): 0% | MAST ST LAD: > 100 mg/kg

OC[C@H]1O[C@@H](n2cnc3c(NCC(c4ccc(F)cc4)c4ccc(F)cc4)ncnc32)[C@H](O)[C@@H]1O [Example 13, N^6-(2,2-Di-(4-fluorophenyl)ethyl)adenosine]
MAST ST LAD: > 100 mg/kg

COc1ccc(C(CNc2ncnc3c2ncn3[C@@H]2O[C@H](CO)[C@@H](O)[C@H]2O)c2ccccc2)cc1 (stereo partly drawn) [Example 19, N^6-(2-(4-Methoxyphenyl)-2-phenylethyl)adenosine]
MAST ST LAD: 30 mg/kg

OC[C@H]1O[C@@H](n2cnc3c(NCC(c4ccccc4)c4ccccc4)nc(Cl)nc32)[C@H](O)[C@@H]1O [Example 3, N^6-(2,2-Diphenylethyl)-2-chloroadenosine]
Inhibition of screen test failure (10 mg/kg i.p.): 0% | Inhibition of screen test failure (30 mg/kg i.p.): 11% | Inhibition of screen test failure (100 mg/kg i.p.): 44% | MAST ST LAD: > 100 mg/kg

OC[C@H]1O[C@@H](n2cnc3c(NCC(c4ccccc4)c4ccc(F)cc4)ncnc32)[C@H](O)[C@@H]1O (stereo partly drawn) [Example 10, N^6-(2-(4-Fluorophenyl)-2-phenylethyl)adenosine]
MAST ST LAD: > 100 mg/kg

OC[C@H]1O[C@@H](n2cnc3c(NCCCCC(c4ccccc4)c4ccccc4)ncnc32)[C@H](O)[C@@H]1O [Example 7, N^6-(5,5-Diphenylpentyl)adenosine]
MAST ST LAD: > 100 mg/kg

OC[C@H]1O[C@@H](n2cnc3c(NCC(c4ccccc4)c4ccc(F)cc4)nc(Cl)nc32)[C@H](O)[C@@H]1O (stereo partly drawn) [Example 11, N^6-(2-(4-Fluorophenyl)-2-phenylethyl)-2-chloroadenosine]
MAST ST LAD: > 100 mg/kg

CC(CNc1nc(N)nc2c1ncn2[C@@H]1O[C@H](CO)[C@@H](O)[C@H]1O)(c1ccccc1)c1ccccc1 [Example 21, N^6-(2,2-Diphenylpropyl)-2-aminoadenosine]
MAST ST LAD: > 100 mg/kg

Cc1cccc(C(CNc2ncnc3c2ncn3[C@@H]2O[C@H](CO)[C@@H](O)[C@H]2O)c2ccccc2)c1 (stereo partly drawn) [Example 9, N^6-(2-(3-Methylphenyl)-2-phenylethyl)adenosine]
MAST ST LAD: 100 mg/kg

Nc1nc(NCC(c2ccccc2)c2ccc(Cl)cc2)c2ncn([C@@H]3O[C@H](CO)[C@@H](O)[C@H]3O)c2n1 (stereo partly drawn) [Example 16]
MAST ST LAD: > 100 mg/kg

OC[C@H]1O[C@@H](n2cnc3c(NCC(c4ccc(Cl)cc4)c4ccc(Cl)cc4)ncnc32)[C@H](O)[C@@H]1O [Example 17, N^6-(2,2-Di(4-chlorophenyl)ethyl)adenosine]
MAST ST LAD: > 100 mg/kg

Nc1nc(NCC(c2ccccc2)c2ccc(F)cc2)c2ncn([C@@H]3O[C@H](CO)[C@@H](O)[C@H]3O)c2n1 (stereo partly drawn) [Example 12, N^6-(2-(4-Fluorophenyl)-2-phenylethyl)-2-amino adenosine]
MAST ST LAD: > 100 mg/kg

CC1(C)O[C@@H]2[C@H](O1)[C@@H](CO)O[C@H]2n1cnc2c(NCC(c3ccccc3)c3ccccc3)ncnc21 [Example 29, 2',3'-O-Isopropylidene-N^6-(2,2-diphenylethyl) adenosine]
MAST ST LAD: > 100 mg/kg

O=C(OC[C@H]1O[C@@H](n2cnc3c(NCC(c4ccccc4)c4ccccc4)ncnc32)[C@H](OC(=O)c2ccccc2)[C@@H]1OC(=O)c1ccccc1)c1ccccc1 [Example 26, 2',3',5'-Tri-O-benzoyl-N^6-(2,2-diphenylethyl) adenosine]
MAST ST LAD: > 100 mg/kg

OC[C@H]1O[C@@H](n2cnc3c(NC(c4ccccc4)c4ccccc4)ncnc32)[C@H](O)[C@@H]1O [Example 5, N^6 -Diphenylmethyladenosine]
MAST ST LAD: > 100 mg/kg

CC(=O)OC[C@H]1O[C@@H](n2cnc3c(NCC(c4ccccc4)c4ccccc4)nc(Cl)nc32)[C@H](OC(C)=O)[C@@H]1OC(C)=O [Example 27, 2',3',5'-Tri-O-acetyl-N^6-(2,2-diphenylethyl)-2-chloroadenosine]
MAST ST LAD: > 100 mg/kg

COC(=O)C(CNc1ncnc2c1ncn2[C@@H]1O[C@H](CO)[C@@H](O)[C@H]1O)(c1ccccc1)c1ccccc1 [Example 24, N^6-(2-Carbomethoxy-2,2-diphenylethyl)adenosine]
MAST ST LAD: > 30 mg/kg

CC(CNc1ncnc2c1ncn2[C@@H]1O[C@H](CO)[C@@H](O)[C@H]1O)(c1ccccc1)c1ccccc1 [Example 8, N^6-(2,2-Diphenylpropyl)adenosine]
MAST ST LAD: > 100 mg/kg

OC[C@H]1O[C@@H](n2cnc3c(NCC(c4ccccc4)c4ccc(Cl)cc4)ncnc32)[C@H](O)[C@@H]1O (stereo partly drawn) [Example 15, N^6-(2-(4-Chlorophenyl)-2-phenylethyl)adenosine]
MAST ST LAD: > 100 mg/kg

Nc1nc(NCC(O)(c2ccccc2)c2ccccc2)c2ncn([C@@H]3O[C@H](CO)[C@@H](O)[C@H]3O)c2n1 [Example 23, N^6-(2,2-Diphenyl-2-hydroxyethyl)-2-aminoadenosine]
MAST ST LAD: > 100 mg/kg

OC[C@H]1O[C@@H](n2cnc3c(NCC(O)(c4ccccc4)c4ccccc4)ncnc32)[C@H](O)[C@@H]1O [Example 22, N^6-(2,2-Diphenyl-2-hydroxyethyl)adenosine]
MAST ST LAD: 100 mg/kg

OC[C@H]1O[C@@H](n2cnc3c(NCC(c4ccccc4)c4cccc(Cl)c4)ncnc32)[C@H](O)[C@@H]1O (stereo partly drawn) [Example 14, N^6-(2-(3-Chlorophenyl)-2-phenylethyl)adenosine]
MAST ST LAD: > 100 mg/kg
